Reference: the NIST ThermoML archive (doi:10.1016/j.tca.2008.10.017)

Test: molar heat capacity at constant pressure
Conditions: 101.33 kPa, Crystal 2, Small (less than 1 g) adiabatic calorimetry

CCCC[N+](CCCC)(CCCC)CCCC.[I-] [tetrabutylammonium iodide]
Conditions	molar heat capacity at constant pressure [J/K/mol]
5 K	0.875
5.6 K	0.546
5.7 K	0.62
5.82 K	0.735
5.88 K	0.786
6.15 K	1.05
6.33 K	1.24
6.6 K	1.54
6.69 K	1.67
6.89 K	1.87
6.98 K	2.05
7.07 K	2.12
7.26 K	2.39
7.35 K	2.49
7.45 K	2.68
7.54 K	2.82
7.74 K	3.02
8.03 K	3.55
8.14 K	3.66
8.24 K	3.76
8.45 K	4.16
8.55 K	4.34
8.66 K	4.58
8.77 K	4.69
8.87 K	4.87
9.09 K	5.28
9.2 K	5.43
9.42 K	5.78
9.53 K	5.96
9.76 K	6.52
9.87 K	6.76
9.98 K	6.85
10 K	6.91
10.26 K	7.37
10.71 K	8.33
11.16 K	9.2
11.61 K	10.3
12.08 K	11.3
12.55 K	12.5
13.04 K	13.6
13.53 K	14.9
14.03 K	16
14.54 K	17.2
15.05 K	18.56
15.57 K	19.98
16.09 K	21.47
16.61 K	22.94
17.14 K	24.46
17.67 K	25.9
18.2 K	27.48
18.76 K	29
19.31 K	30.77
19.85 K	32.46
20 K	32.91
20.98 K	35.93
22.55 K	40.49
24.16 K	45.21
25.78 K	49.77
27.42 K	54.6
29.07 K	59.44
30 K	62.21
30.73 K	64.36
32.39 K	69.26
34.07 K	74.01
35.76 K	78.8
37.45 K	83.46
39.15 K	87.9
40 K	90.12
40.85 K	92.36
42.56 K	96.45
44.26 K	100.6
45.97 K	104.7
47.72 K	108.8
49.44 K	112.6
50 K	113.7
51.16 K	116.5
52.88 K	120.1
54.61 K	123.5
56.34 K	127.3
58.07 K	131
59.8 K	134.9
60 K	135.4
61.53 K	138.8
63.27 K	142.4
65.01 K	146.4
66.75 K	150
68.49 K	153.6
70 K	156.1
72.19 K	159.7
74.35 K	163.7
76.49 K	167.2
78.63 K	170.6
80 K	172.8
80.76 K	173.7
82.88 K	177.6
84.02 K	179.7
85.33 K	181.8
87.83 K	185.8
89.91 K	189.2
90 K	189.7
91.99 K	192.3
94.06 K	195.1
96.13 K	198.4
98.18 K	201.3
100 K	204.1
100.24 K	204.2
102.48 K	208.5
104.92 K	211.3
107.37 K	214.8
109.82 K	217.8
110 K	217.9
112.27 K	220.9
114.75 K	224.1
117.24 K	227.3
119.7 K	230.1
120 K	230.8
122.11 K	233.2
124.58 K	236.3
127.05 K	239.3
129.51 K	242.1
130 K	242.9
131.98 K	245.1
134.46 K	248.1
136.93 K	251
139.4 K	253.8
140 K	254.4
141.88 K	256.5
144.36 K	259.3
146.84 K	262.3
149.32 K	264.6
150 K	265.4
151.8 K	267.5
154.28 K	270.5
156.76 K	273
159.25 K	275.4
160 K	276.3
161.68 K	277.9
164.17 K	280.8
166.66 K	283.6
169.14 K	286.4
170 K	287.1
171.63 K	288.8
174.12 K	291.3
179.09 K	296.7
180 K	297.8
181.58 K	299.2
184.06 K	302
186.55 K	304.6
189.03 K	307.5
190 K	308.6
191.52 K	310
194 K	312.6
196.48 K	315.8
198.96 K	318.2
200 K	319.4
201.37 K	321.1
203.83 K	324
206.3 K	326.7
208.78 K	329.1
210 K	330.4
211.25 K	332.3
213.73 K	334
216.22 K	337
218.7 K	339.9
220 K	341.7
221.19 K	342.7
223.68 K	345.9
226.17 K	348.6
228.67 K	351.6
230 K	353.2
231.16 K	354.6
233.66 K	357.7
235.16 K	359.3
237.7 K	362.3
238.66 K	363.9
240 K	365.1
241.12 K	366.7
243.63 K	369.8
246.14 K	372.6
248.65 K	375.9
250 K	377.4
251.17 K	379.2
253.68 K	382.1
256.2 K	385.3
258.72 K	388.5
260 K	390.2
261.24 K	392
263.76 K	395.2
266.29 K	398.2
268.81 K	401.5
270 K	403.3
271.34 K	405
273.15 K	407.6
273.87 K	408.1
276.4 K	411.5
278.93 K	415
280 K	416.9
281.43 K	418.6
283.96 K	421.7
286.49 K	425.5
289.02 K	429.5
290 K	430.8
291.54 K	433.4
294.07 K	436.3
296.58 K	439.9
298.15 K	442.5
299.1 K	443.6
300 K	445.2
301.98 K	449.2
305.32 K	453.3
308.64 K	459.7
310 K	460.1
311.93 K	464
315.18 K	468.4
318.42 K	473.1
320 K	475.7
321.63 K	477.8
324.82 K	483
327.99 K	488.3
330 K	492.4
331.13 K	493.9
334.25 K	499.5
337.34 K	505.8
340 K	511
340.41 K	511.9
343.45 K	518.1
346.47 K	524.6
349.45 K	530.9
350 K	532.3
352.15 K	537.6
